From the kinase profiling compilation of Christmann-Franck et al. (2016)

Tests used:
Assay in all cases: split-luciferase competition binding
[1] = molecular target: RPS6KA6 KD1 (human) (UniProt Q9UK32); conditions: compound 10.0 µM
[2] = molecular target: SGK3 (human) (UniProt Q96BR1); conditions: compound 10.0 µM
[3] = molecular target: AURKC (human) (UniProt Q9UQB9); conditions: compound 10.0 µM
[4] = molecular target: PRKCI (human) (UniProt P41743); conditions: compound 10.0 µM
[5] = tested on: PRKACA (mouse); conditions: compound 10.0 µM; accession and sequence are those of the human protein
[6] = molecular target: RPS6KA5 KD1 (human) (UniProt O75582); conditions: compound 10.0 µM
[7] = molecular target: PRKACB (human) (UniProt P22694); conditions: compound 10.0 µM
[8] = molecular target: DMPK (human) (UniProt Q09013); conditions: compound 10.0 µM
[9] = molecular target: AKT3 (human) (UniProt Q9Y243); conditions: compound 10.0 µM
[10] = molecular target: RPS6KA4 KD1 (human) (UniProt O75676); conditions: compound 10.0 µM
RPS6KA4 KD1 (human), sequence (O75676 whole entry, looked up): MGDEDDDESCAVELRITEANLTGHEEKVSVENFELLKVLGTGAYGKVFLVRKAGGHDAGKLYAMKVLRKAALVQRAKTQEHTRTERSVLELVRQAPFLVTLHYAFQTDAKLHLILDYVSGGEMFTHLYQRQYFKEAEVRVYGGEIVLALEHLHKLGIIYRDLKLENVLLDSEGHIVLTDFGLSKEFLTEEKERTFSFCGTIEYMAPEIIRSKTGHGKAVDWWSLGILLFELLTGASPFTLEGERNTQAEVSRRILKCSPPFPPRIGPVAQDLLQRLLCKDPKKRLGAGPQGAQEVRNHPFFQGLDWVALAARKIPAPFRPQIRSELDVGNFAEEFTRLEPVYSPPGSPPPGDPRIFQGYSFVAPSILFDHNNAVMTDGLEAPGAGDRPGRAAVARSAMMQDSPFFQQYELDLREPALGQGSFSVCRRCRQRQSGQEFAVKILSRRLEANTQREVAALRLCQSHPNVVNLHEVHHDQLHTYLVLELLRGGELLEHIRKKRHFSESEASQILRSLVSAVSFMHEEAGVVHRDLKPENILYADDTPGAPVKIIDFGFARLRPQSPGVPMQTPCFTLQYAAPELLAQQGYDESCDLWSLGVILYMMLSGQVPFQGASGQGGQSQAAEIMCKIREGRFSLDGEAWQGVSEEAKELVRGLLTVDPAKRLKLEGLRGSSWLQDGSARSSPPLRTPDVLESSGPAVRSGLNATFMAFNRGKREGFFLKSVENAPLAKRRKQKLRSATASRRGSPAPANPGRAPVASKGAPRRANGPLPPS

[11] = molecular target: PRKX (human) (UniProt P51817); conditions: compound 10.0 µM
PRKX (human), sequence (P51817 whole entry, looked up): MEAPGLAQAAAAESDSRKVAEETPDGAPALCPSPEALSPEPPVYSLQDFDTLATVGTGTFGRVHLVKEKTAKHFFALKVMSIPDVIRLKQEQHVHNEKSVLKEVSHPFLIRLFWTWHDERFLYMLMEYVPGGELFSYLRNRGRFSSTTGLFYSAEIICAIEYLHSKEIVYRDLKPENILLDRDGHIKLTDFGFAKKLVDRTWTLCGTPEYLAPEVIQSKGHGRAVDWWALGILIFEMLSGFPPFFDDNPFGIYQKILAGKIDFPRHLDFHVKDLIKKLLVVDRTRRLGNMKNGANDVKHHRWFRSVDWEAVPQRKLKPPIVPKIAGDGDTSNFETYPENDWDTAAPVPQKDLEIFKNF

[12] = molecular target: PRKCD (human) (UniProt Q05655); conditions: compound 10.0 µM
PRKCD (human), sequence (Q05655 whole entry, looked up): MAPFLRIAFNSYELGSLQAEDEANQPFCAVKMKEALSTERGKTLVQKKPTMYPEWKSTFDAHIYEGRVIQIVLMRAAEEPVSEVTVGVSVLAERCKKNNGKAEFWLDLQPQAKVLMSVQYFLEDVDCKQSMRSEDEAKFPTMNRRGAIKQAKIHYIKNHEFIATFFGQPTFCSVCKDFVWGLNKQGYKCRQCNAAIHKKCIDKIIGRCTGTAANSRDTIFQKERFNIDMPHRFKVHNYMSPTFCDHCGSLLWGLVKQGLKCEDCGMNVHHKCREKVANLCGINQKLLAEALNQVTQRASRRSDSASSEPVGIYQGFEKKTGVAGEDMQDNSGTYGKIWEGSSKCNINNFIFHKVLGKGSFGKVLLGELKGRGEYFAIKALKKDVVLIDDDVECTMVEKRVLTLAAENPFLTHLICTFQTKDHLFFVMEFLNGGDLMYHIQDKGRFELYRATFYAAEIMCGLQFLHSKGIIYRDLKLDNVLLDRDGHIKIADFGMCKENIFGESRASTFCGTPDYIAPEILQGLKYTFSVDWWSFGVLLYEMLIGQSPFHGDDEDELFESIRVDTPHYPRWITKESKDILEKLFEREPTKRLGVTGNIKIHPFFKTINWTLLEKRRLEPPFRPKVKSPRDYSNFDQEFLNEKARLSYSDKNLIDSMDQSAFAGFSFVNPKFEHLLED

[13] = molecular target: RPS6KA1 KD1 (human) (UniProt Q15418); conditions: compound 10.0 µM
RPS6KA1 KD1 (human), sequence (Q15418 whole entry, looked up): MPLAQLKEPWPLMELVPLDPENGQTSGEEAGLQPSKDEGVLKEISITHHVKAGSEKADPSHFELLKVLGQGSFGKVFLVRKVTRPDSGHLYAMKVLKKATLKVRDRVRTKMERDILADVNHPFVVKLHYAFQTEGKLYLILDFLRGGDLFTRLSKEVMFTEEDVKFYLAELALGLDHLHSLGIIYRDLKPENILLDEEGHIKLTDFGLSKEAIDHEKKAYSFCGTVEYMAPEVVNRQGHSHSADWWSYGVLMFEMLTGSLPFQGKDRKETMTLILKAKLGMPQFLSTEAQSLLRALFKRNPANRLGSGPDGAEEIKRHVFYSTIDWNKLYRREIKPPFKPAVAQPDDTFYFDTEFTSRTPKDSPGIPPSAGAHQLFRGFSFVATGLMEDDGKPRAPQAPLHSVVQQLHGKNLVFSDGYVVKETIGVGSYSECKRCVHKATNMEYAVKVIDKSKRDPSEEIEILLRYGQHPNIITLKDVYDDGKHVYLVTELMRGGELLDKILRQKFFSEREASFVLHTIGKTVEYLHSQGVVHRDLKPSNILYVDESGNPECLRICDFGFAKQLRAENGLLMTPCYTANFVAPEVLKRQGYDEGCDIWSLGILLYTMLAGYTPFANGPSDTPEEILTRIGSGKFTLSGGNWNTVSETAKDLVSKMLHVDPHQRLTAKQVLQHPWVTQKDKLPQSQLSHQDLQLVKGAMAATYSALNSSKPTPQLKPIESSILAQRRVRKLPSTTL

[14] = molecular target: AURKA (human) (UniProt O14965); conditions: compound 10.0 µM
AURKA (human), sequence (O14965 whole entry, looked up): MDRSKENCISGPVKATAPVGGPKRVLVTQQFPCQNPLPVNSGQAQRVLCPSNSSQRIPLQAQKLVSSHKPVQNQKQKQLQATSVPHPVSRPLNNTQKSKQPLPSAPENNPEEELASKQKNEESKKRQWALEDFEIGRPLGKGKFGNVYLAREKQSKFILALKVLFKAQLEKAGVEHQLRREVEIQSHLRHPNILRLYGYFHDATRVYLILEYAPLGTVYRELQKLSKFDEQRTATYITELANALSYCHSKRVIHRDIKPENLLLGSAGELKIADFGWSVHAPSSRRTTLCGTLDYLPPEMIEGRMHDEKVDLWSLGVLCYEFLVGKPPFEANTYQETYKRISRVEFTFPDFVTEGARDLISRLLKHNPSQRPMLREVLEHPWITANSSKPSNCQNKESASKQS

[15] = molecular target: AKT1 (human) (UniProt P31749); conditions: compound 10.0 µM
[16] = molecular target: PRKCQ (human) (UniProt Q04759); conditions: compound 10.0 µM
[17] = molecular target: PDPK1 (human) (UniProt O15530); conditions: compound 10.0 µM
[18] = molecular target: RPS6KA2 KD1 (human) (UniProt Q15349); conditions: compound 10.0 µM
RPS6KA2 KD1 (human), sequence (Q15349 whole entry, looked up): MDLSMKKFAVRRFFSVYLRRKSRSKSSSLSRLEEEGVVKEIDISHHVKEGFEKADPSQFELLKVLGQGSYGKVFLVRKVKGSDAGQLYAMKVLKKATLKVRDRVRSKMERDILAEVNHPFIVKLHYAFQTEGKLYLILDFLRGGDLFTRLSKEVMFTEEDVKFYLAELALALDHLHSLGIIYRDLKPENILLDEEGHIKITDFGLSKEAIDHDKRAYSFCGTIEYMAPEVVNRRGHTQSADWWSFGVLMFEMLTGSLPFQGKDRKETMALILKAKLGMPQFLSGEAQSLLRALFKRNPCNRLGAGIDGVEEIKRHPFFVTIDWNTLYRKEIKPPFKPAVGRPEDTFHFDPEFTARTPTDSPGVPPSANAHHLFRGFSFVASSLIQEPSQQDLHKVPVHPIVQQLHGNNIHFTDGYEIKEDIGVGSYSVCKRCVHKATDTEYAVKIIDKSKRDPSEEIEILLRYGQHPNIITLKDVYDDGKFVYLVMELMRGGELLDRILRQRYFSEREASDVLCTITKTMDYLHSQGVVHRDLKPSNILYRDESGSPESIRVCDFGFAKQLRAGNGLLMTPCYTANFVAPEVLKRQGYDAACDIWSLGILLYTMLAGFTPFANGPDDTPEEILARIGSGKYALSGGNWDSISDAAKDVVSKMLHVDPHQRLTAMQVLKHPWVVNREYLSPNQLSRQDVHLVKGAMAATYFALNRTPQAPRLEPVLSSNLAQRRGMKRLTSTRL

[19] = molecular target: AURKB (human) (UniProt Q96GD4); conditions: compound 10.0 µM
AURKB (human), sequence (Q96GD4 whole entry, looked up): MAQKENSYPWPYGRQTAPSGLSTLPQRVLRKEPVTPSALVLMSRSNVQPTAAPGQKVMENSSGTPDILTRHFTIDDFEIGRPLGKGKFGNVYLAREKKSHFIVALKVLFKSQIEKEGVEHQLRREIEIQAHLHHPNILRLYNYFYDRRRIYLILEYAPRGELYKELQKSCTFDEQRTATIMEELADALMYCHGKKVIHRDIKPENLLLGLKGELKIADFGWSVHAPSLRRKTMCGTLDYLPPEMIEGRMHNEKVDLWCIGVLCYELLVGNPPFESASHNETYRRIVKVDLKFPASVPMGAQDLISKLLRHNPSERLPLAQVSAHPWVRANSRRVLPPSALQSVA

[20] = molecular target: PRKCH (human) (UniProt P24723); conditions: compound 10.0 µM
[21] = molecular target: SGK2 (human) (UniProt Q9HBY8); conditions: compound 10.0 µM
[22] = molecular target: PRKCE (human) (UniProt Q02156); conditions: compound 10.0 µM
[23] = molecular target: RPS6KA3 KD1 (human) (UniProt P51812); conditions: compound 10.0 µM
[24] = molecular target: PKN1 (human) (UniProt Q16512); conditions: compound 10.0 µM
[25] = molecular target: AKT2 (human) (UniProt P31751); conditions: compound 10.0 µM
[26] = molecular target: PRKCG (human) (UniProt P05129); conditions: compound 10.0 µM
[27] = molecular target: STK32B (human) (UniProt Q9NY57); conditions: compound 10.0 µM

RPS6KA6 KD1 (human), sequence (Q9UK32 whole entry, looked up): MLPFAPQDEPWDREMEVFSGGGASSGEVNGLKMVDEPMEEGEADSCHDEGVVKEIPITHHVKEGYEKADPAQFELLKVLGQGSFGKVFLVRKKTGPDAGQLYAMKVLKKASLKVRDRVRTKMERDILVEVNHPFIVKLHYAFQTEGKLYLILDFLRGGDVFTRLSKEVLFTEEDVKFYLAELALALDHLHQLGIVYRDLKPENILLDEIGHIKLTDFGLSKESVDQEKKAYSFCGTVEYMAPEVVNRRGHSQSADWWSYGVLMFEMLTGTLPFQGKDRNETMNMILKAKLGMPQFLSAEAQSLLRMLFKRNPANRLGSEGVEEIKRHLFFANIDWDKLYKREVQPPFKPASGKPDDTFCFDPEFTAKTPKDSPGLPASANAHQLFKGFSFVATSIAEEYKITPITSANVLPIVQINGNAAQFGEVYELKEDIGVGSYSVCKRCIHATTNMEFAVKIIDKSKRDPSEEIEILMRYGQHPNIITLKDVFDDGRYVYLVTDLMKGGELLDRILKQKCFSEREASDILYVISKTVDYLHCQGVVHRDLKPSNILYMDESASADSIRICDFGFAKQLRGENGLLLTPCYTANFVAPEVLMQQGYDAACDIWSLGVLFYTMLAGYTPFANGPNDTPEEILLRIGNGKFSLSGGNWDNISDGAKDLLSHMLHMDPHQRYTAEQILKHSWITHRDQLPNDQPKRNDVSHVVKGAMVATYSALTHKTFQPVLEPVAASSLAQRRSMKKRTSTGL

| inhibition [1] [%] | inhibition [2] [%] | inhibition [3] [%] | inhibition [4] [%] | inhibition [5] [%] | inhibition [6] [%] | inhibition [7] [%] | inhibition [8] [%] | inhibition [9] [%] | inhibition [10] [%] | inhibition [11] [%] | inhibition [12] [%] | inhibition [13] [%] | inhibition [14] [%] | inhibition [15] [%] | inhibition [16] [%] | inhibition [17] [%] | inhibition [18] [%] | inhibition [19] [%] | inhibition [20] [%] | SMILES | further results |
| --- | --- | --- | --- | --- | --- | --- | --- | --- | --- | --- | --- | --- | --- | --- | --- | --- | --- | --- | --- | --- | --- |
| 4 | 0 | 17 | 0 | 32 | 0 | 21 | 27 | 0 | 0 | 9 | 0 | 24 | 0 | 18 | 31 | 0 | 10 | 12 | 8 | CC(C)(C)n1nc(-c2cccc3ccccc23)c2c(N)ncnc21 | inhibition [21]: 0%; inhibition [22]: 14%; inhibition [23]: 30%; inhibition [24]: 0%; inhibition [25]: 0%; inhibition [26]: 5%; inhibition [27]: 66% |
| 7 | 0 | 6 | 0 | 30 | 1 | 8 | 26 | 0 | 0 | 0 | 0 | 7 | 0 | 0 | 0 | 0 | 4 | 0 | 4 | CC(C)(C)n1nc(-c2ccc(Cl)cc2)c2c(N)ncnc21 | inhibition [21]: 0%; inhibition [22]: 0%; inhibition [23]: 6%; inhibition [24]: 0%; inhibition [25]: 0%; inhibition [26]: 0%; inhibition [27]: 43% |
| 0 | 0 | 0 | 0 | 4 | 0 | 0 | 0 | 0 | 0 | 0 | 0 | 0 | 0 | 0 | 0 | 0 | 0 | 0 | 0 | Cc1ccccc1C(=O)c1ccc(Nc2ccc(Br)cc2N)cc1Cl | inhibition [21]: 0%; inhibition [22]: 12%; inhibition [23]: 0%; inhibition [24]: 0%; inhibition [25]: 0%; inhibition [26]: 0%; inhibition [27]: 0% |

Continued, compound first:

| SMILES | inhibition [1] [%] | inhibition [2] [%] | inhibition [3] [%] | inhibition [4] [%] | inhibition [5] [%] | inhibition [6] [%] | inhibition [7] [%] | inhibition [8] [%] | inhibition [9] [%] | inhibition [10] [%] | inhibition [11] [%] | inhibition [12] [%] | inhibition [13] [%] | inhibition [14] [%] | inhibition [15] [%] | inhibition [16] [%] | inhibition [17] [%] | inhibition [18] [%] | inhibition [19] [%] | inhibition [20] [%] | further results |
| --- | --- | --- | --- | --- | --- | --- | --- | --- | --- | --- | --- | --- | --- | --- | --- | --- | --- | --- | --- | --- | --- |
| NC(=O)c1sc(-c2ccsc2)cc1N | 24 | 0 | 0 | 0 | 0 | 0 | 2 | 0 | 0 | 0 | 0 | 0 | 0 | 0 | 0 | 0 | 0 | 0 | 0 | 11 | inhibition [21]: 0%; inhibition [22]: 0%; inhibition [23]: 0%; inhibition [24]: 0%; inhibition [25]: 0%; inhibition [26]: 0%; inhibition [27]: 0% |
| COc1nccc(-c2c(-c3ccc(F)cc3)ncn2[C@H]2CC[C@H](O)CC2)n1 | 0 | 0 | 0 | 0 | 0 | 0 | 1 | 0 | 0 | 0 | 11 | 6 | 0 | 4 | 0 | 6 | 0 | 0 | 6 | 0 | inhibition [21]: 0%; inhibition [22]: 0%; inhibition [23]: 0%; inhibition [24]: 12%; inhibition [25]: 0%; inhibition [26]: 9%; inhibition [27]: 40% |
| CC1=C(O)C(=O)[C@@H]2OC2C1=O (some centres not stated) | 5 | 1 | 0 | 0 | 0 | 2 | 0 | 0 | 0 | 0 | 0 | 0 | 5 | 0 | 0 | 0 | 2 | 0 | 0 | 7 | inhibition [21]: 0%; inhibition [22]: 0%; inhibition [23]: 0%; inhibition [24]: 0%; inhibition [25]: 0%; inhibition [26]: 0%; inhibition [27]: 36% |
